Assays:
Experiment in all cases: Weed control test, foliage treatment (Test Example 1, Table 7)
[1] = test system: HORVU (Hordeum vulgare L., barley); conditions: in vivo
Method: (§1) Seeds of rice, wheat, soy bean, barley, corn, common sorgum, barnyard grass, large crabgrass, creek grass, green foxtail and fall panicum were placed in sandy loam in 600 cm^2 pots and covered with soil. After keeping the pots in a greenhouse at 20 to 30° C. allowing growth of the plants to the 3-leaf stage of the barnyard grass, 2,000 l/ha of an emulsion obtained by diluting with water a mixture of 1 part by weight of a test compound, 5 parts by weight of acetone and 1 part by weight of an emulsifying agent (Tween 80, Junsei) was applied to the surface of the foliage of the plants. The plant damage at 10 days and 20 days after the foliage treatment was visually evaluated from the level of 1 to 100% by comparison with the untreated control: […]

[2] = test system: ORYSA (Oryza sativa cv. Dongjin, rice); conditions: in vivo
Method: as §1

[3] = test system: GLXMA (Glycine max(L.) MERR, soy bean); conditions: in vivo
Method: as §1

[4] = test system: TRZAW (Tritium aestivum L., wheat); conditions: in vivo
Method: as §1

[5] = test system: DIGSA (Digitaria Sanguinalis (L.) SCOP, large crabgrass); assay type: in vivo; conditions: Digitaria sanguinalis, foliar, read-out: Plant damage (herbicidal activity), visually evaluated, DIGSA; for pest or weed control at 25 g/ha: 0.025 kg/ha; for pest or weed control at 100 g/ha: 0.1 kg/ha; for pest or weed control at 200 g/ha: 0.2 kg/ha
Method: as §1

[6] = test system: SORBI (Andropogon sorghum, common sorgum); assay type: in vivo; conditions: Sorghum bicolor, foliar, read-out: Plant damage (herbicidal activity), visually evaluated, SORBI; for pest or weed control at 25 g/ha: 0.025 kg/ha; for pest or weed control at 100 g/ha: 0.1 kg/ha; for pest or weed control at 200 g/ha: 0.2 kg/ha
Method: as §1

[7] = test system: ARTHIS (Arthraxon hispidus (Thunb.) Makino, creek grass); assay type: in vivo; conditions: Arthraxon hispidus, foliar, read-out: Plant damage (herbicidal activity), visually evaluated, ARTHIS; for pest or weed control at 25 g/ha: 0.025 kg/ha; for pest or weed control at 100 g/ha: 0.1 kg/ha; for pest or weed control at 200 g/ha: 0.2 kg/ha
Method: as §1

[8] = test system: PANDI (Panium dichotomiflorum Michx, fall panicum); assay type: in vivo; conditions: Panicum dichotomiflorum, foliar, read-out: Plant damage (herbicidal activity), visually evaluated, PANDI; for pest or weed control at 25 g/ha: 0.025 kg/ha; for pest or weed control at 100 g/ha: 0.1 kg/ha; for pest or weed control at 200 g/ha: 0.2 kg/ha
Method: as §1

[9] = test system: ZEAMX (Zea mays L., corn); assay type: in vivo; conditions: Zea mays, foliar, read-out: Plant damage (herbicidal activity), visually evaluated, ZEAMX; for plant injury at 25 g/ha: 0.025 kg/ha; for plant injury at 100 g/ha: 0.1 kg/ha; for plant injury at 200 g/ha: 0.2 kg/ha
Method: as §1

[10] = test system: SETVIR (Setaria viridis (L.) Beauv, green foxtail); assay type: in vivo; conditions: Setaria viridis, foliar, read-out: Plant damage (herbicidal activity), visually evaluated, SETVIR; for pest or weed control at 25 g/ha: 0.025 kg/ha; for pest or weed control at 100 g/ha: 0.1 kg/ha; for pest or weed control at 200 g/ha: 0.2 kg/ha
Method: as §1

[11] = test system: ECHOG (Echinoch crus-galli Beauv. var. caudata Kitagawa, barnyard grass); assay type: in vivo; conditions: Echinochloa crus-galli, foliar, 3-leaf stage, read-out: Plant damage (herbicidal activity), visually evaluated, ECHOG; for pest or weed control at 25 g/ha: 0.025 kg/ha; for pest or weed control at 100 g/ha: 0.1 kg/ha; for pest or weed control at 200 g/ha: 0.2 kg/ha
Method: as §1

## C[C@@H](Oc1ccc(Oc2ccc(C#N)cc2F)cc1)C(=O)Nc1cnccn1 [Example 35, (R)-2-[4-(4-cyano-2-fluorophenoxy)phenoxy]propionic acid-N-(2-pyrazinyl)amide]
[1]
  Plant damage (herbicidal activity), visually evaluated, HORVU: 0%
[2]
  Plant damage (herbicidal activity), visually evaluated, ORYSA: 0%
[3]
  Plant damage (herbicidal activity), visually evaluated, GLXMA: 0%
[4]
  Plant damage (herbicidal activity), visually evaluated, TRZAW: 0%
[5]
  pest or weed control at 25 g/ha: 10%
  pest or weed control at 100 g/ha: 40%
  pest or weed control at 200 g/ha: 60%
[6]
  pest or weed control at 25 g/ha: 20%
  pest or weed control at 100 g/ha: 65%
  pest or weed control at 200 g/ha: 80%
[7]
  pest or weed control at 25 g/ha: 0%
  pest or weed control at 100 g/ha: 10%
  pest or weed control at 200 g/ha: 30%
[8]
  pest or weed control at 25 g/ha: 0%
  pest or weed control at 100 g/ha: 0%
  pest or weed control at 200 g/ha: 30%
[9]
  plant injury at 25 g/ha: 0%
  plant injury at 100 g/ha: 20%
  plant injury at 200 g/ha: 30%
[10]
  pest or weed control at 25 g/ha: 0%
  pest or weed control at 100 g/ha: 30%
  pest or weed control at 200 g/ha: 50%
[11]
  pest or weed control at 25 g/ha: 0%
  pest or weed control at 100 g/ha: 10%
  pest or weed control at 200 g/ha: 30%

## C[C@@H](Oc1ccc(OC(F)=Cc2ccccc2)cc1)C(=O)N(C)c1ccccc1F [Example 37, (R)-2-[4-(1-fluoro-2-phenylvinyloxy)phenoxy]propionic acid-N-(2-fluorophenyl)-N-methyl amide]
[1]
  Plant damage (herbicidal activity), visually evaluated, HORVU: 0%
[2]
  Plant damage (herbicidal activity), visually evaluated, ORYSA: 0%
[3]
  Plant damage (herbicidal activity), visually evaluated, GLXMA: 0%
[4]
  Plant damage (herbicidal activity), visually evaluated, TRZAW: 0%
[5]
  pest or weed control at 25 g/ha: 0%
  pest or weed control at 100 g/ha: 20%
  pest or weed control at 200 g/ha: 90%
[6]
  pest or weed control at 25 g/ha: 0%
  pest or weed control at 100 g/ha: 20%
  pest or weed control at 200 g/ha: 20%
[7]
  pest or weed control at 25 g/ha: 0%
  pest or weed control at 100 g/ha: 0%
  pest or weed control at 200 g/ha: 10%
[8]
  pest or weed control at 25 g/ha: 0%
  pest or weed control at 100 g/ha: 0%
  pest or weed control at 200 g/ha: 10%
[9]
  plant injury at 25 g/ha: 0%
  plant injury at 100 g/ha: 0%
  plant injury at 200 g/ha: 30%
[10]
  pest or weed control at 25 g/ha: 0%
  pest or weed control at 100 g/ha: 0%
  pest or weed control at 200 g/ha: 20%
[11]
  pest or weed control at 25 g/ha: 20%
  pest or weed control at 100 g/ha: 70%
  pest or weed control at 200 g/ha: 90%

## C[C@@H](Oc1ccc(C(F)=C(c2ccc(F)cc2)C(F)(F)F)cc1)C(=O)Nc1ccccc1F [Example 40, (R)-2-[4-(1,3,3,3-tetrafluoro-2-(4-fluorophenyl)prop-1-enyl)phenoxy]propionic acid-N-(2-fluorophenyl)amide]
[1]
  Plant damage (herbicidal activity), visually evaluated, HORVU: 0%
[2]
  Plant damage (herbicidal activity), visually evaluated, ORYSA: 0%
[3]
  Plant damage (herbicidal activity), visually evaluated, GLXMA: 0%
[4]
  Plant damage (herbicidal activity), visually evaluated, TRZAW: 0%
[5]
  pest or weed control at 25 g/ha: 70%
  pest or weed control at 100 g/ha: 90%
  pest or weed control at 200 g/ha: 90%
[6]
  pest or weed control at 25 g/ha: 0%
  pest or weed control at 100 g/ha: 20%
  pest or weed control at 200 g/ha: 50%
[7]
  pest or weed control at 25 g/ha: 0%
  pest or weed control at 100 g/ha: 0%
  pest or weed control at 200 g/ha: 10%
[8]
  pest or weed control at 25 g/ha: 0%
  pest or weed control at 100 g/ha: 0%
  pest or weed control at 200 g/ha: 10%
[9]
  plant injury at 25 g/ha: 90%
  plant injury at 100 g/ha: 100%
  plant injury at 200 g/ha: 100%
[10]
  pest or weed control at 25 g/ha: 0%
  pest or weed control at 100 g/ha: 0%
  pest or weed control at 200 g/ha: 20%
[11]
  pest or weed control at 25 g/ha: 20%
  pest or weed control at 100 g/ha: 70%
  pest or weed control at 200 g/ha: 90%

## Cc1ccc(C=C(F)Oc2ccc(O[C@H](C)C(=O)Nc3ccccc3F)cc2)cc1 [Example 41, (R)-2-[4-(1-fluoro-2-(4-methylphenyl)vinyloxy)phenoxy]propionic acid-N-(2-fluorophenyl)amide]
[1]
  Plant damage (herbicidal activity), visually evaluated, HORVU: 0%
[2]
  Plant damage (herbicidal activity), visually evaluated, ORYSA: 0%
[3]
  Plant damage (herbicidal activity), visually evaluated, GLXMA: 0%
[4]
  Plant damage (herbicidal activity), visually evaluated, TRZAW: 0%
[5]
  pest or weed control at 25 g/ha: 0%
  pest or weed control at 100 g/ha: 0%
  pest or weed control at 200 g/ha: 50%
[6]
  pest or weed control at 25 g/ha: 0%
  pest or weed control at 100 g/ha: 0%
  pest or weed control at 200 g/ha: 0%
[7]
  pest or weed control at 25 g/ha: 0%
  pest or weed control at 100 g/ha: 0%
  pest or weed control at 200 g/ha: 20%
[8]
  pest or weed control at 25 g/ha: 20%
  pest or weed control at 100 g/ha: 70%
  pest or weed control at 200 g/ha: 70%
[9]
  plant injury at 25 g/ha: 0%
  plant injury at 100 g/ha: 0%
  plant injury at 200 g/ha: 20%
[10]
  pest or weed control at 25 g/ha: 0%
  pest or weed control at 100 g/ha: 20%
  pest or weed control at 200 g/ha: 70%
[11]
  pest or weed control at 25 g/ha: 0%
  pest or weed control at 100 g/ha: 0%
  pest or weed control at 200 g/ha: 20%

## C[C@@H](Oc1ccc(C(F)=C(c2ccccc2)C(F)(F)F)cc1)C(=O)Nc1ccccc1F [Example 42, (R)-2-[4-(1,3,3,3-tetrafluoro-2-phenylprop-1-enyl)phenoxy]propionic acid-N-(2-fluorophenyl)amide]
[1]
  Plant damage (herbicidal activity), visually evaluated, HORVU: 0%
[2]
  Plant damage (herbicidal activity), visually evaluated, ORYSA: 0%
[3]
  Plant damage (herbicidal activity), visually evaluated, GLXMA: 0%
[4]
  Plant damage (herbicidal activity), visually evaluated, TRZAW: 0%
[5]
  pest or weed control at 25 g/ha: 0%
  pest or weed control at 100 g/ha: 0%
  pest or weed control at 200 g/ha: 20%
[6]
  pest or weed control at 25 g/ha: 0%
  pest or weed control at 100 g/ha: 0%
  pest or weed control at 200 g/ha: 0%
[7]
  pest or weed control at 25 g/ha: 0%
  pest or weed control at 100 g/ha: 0%
  pest or weed control at 200 g/ha: 50%
[8]
  pest or weed control at 25 g/ha: 0%
  pest or weed control at 100 g/ha: 0%
  pest or weed control at 200 g/ha: 70%
[9]
  plant injury at 25 g/ha: 0%
  plant injury at 100 g/ha: 30%
  plant injury at 200 g/ha: 90%
[10]
  pest or weed control at 25 g/ha: 0%
  pest or weed control at 100 g/ha: 0%
  pest or weed control at 200 g/ha: 70%
[11]
  pest or weed control at 25 g/ha: 0%
  pest or weed control at 100 g/ha: 20%
  pest or weed control at 200 g/ha: 20%

## C[C@@H](Oc1ccc(C(F)=C(c2ccccc2)C(F)(F)F)cc1)C(=O)Nc1nc2cc(Cl)ccc2o1 [Example 55, (R)-2-[4-(1,3,3,3-tetrafluoro-2-phenylprop-1-enyl)phenoxy]propionic acid-N-(5-chloro-2-benzoxazolyl)amide]
[1]
  Plant damage (herbicidal activity), visually evaluated, HORVU: 0%
[2]
  Plant damage (herbicidal activity), visually evaluated, ORYSA: 0%
[3]
  Plant damage (herbicidal activity), visually evaluated, GLXMA: 0%
[4]
  Plant damage (herbicidal activity), visually evaluated, TRZAW: 0%
[5]
  pest or weed control at 25 g/ha: 0%
  pest or weed control at 100 g/ha: 0%
  pest or weed control at 200 g/ha: 0%
[6]
  pest or weed control at 25 g/ha: 10%
  pest or weed control at 100 g/ha: 20%
  pest or weed control at 200 g/ha: 35%
[7]
  pest or weed control at 25 g/ha: 0%
  pest or weed control at 100 g/ha: 0%
  pest or weed control at 200 g/ha: 0%
[8]
  pest or weed control at 25 g/ha: 0%
  pest or weed control at 100 g/ha: 0%
  pest or weed control at 200 g/ha: 0%
[9]
  plant injury at 25 g/ha: 10%
  plant injury at 100 g/ha: 10%
  plant injury at 200 g/ha: 30%
[10]
  pest or weed control at 25 g/ha: 0%
  pest or weed control at 100 g/ha: 0%
  pest or weed control at 200 g/ha: 0%
[11]
  pest or weed control at 25 g/ha: 0%
  pest or weed control at 100 g/ha: 0%
  pest or weed control at 200 g/ha: 0%

Source: patent publication US8293774B2, “Optically active (R)-aryloxypropionic acid amides and herbicidal composition comprising same” (Kyung Nong Corporation, priority 2007, dated 2012)
